Results from patent US20250134874A1, “PHARMACEUTICAL FORMULATIONS COMPRISING 3-({[(4R)-7-{METHYL[4-(PROPAN-2-YL)PHENYL]AMINO}-3,4-DIHYDRO-2H-1-BENZOPYRAN-4-YL]METHYL}AMINO)PYRIDINE-4-CARBOXYLIC ACID” (TACHYON THERAPEUTICS, INC., priority 2021, published 2025).

Test system: 301 cancer cell lines from different tumor types (OncoPanel; HD Biosciences)
Experiment: 2D cell viability inhibition assay (CellTiter-Glo) in cancer cell line panel
Format: cell-based
Parameters: key to AUC: AUC as fraction of the no-inhibition area (dose range × 0–100 % of control)
Conditions: for Emax: in %
Protocol: In a larger screening study, compound 1 was evaluated across a broad cancer cell line panel (OncoPanel; HD Biosciences) composed of 301 cancer cell lines from different tumor types.
2D cell viability inhibition assays were performed in multiwell plates seeded with cells from the panel. After seeding, the plates were cultured overnight in a humidified incubator at 37° C. to promote adherence. Assays were initiated in individual wells by adding either DMSO as a vehicle control, growth media as a blank, or serially diluted compound 1 (10 μM to 0.0005 μM with 1:3 serial dilution). Cultures were incubated for 168 hours after which the number of viable cells in each test well was assessed using the CellTiter-Glo® Luminescent Cell Viability Assay. Luminescence readouts were performed using an EnVision® Multilabel Reader and the compound 1 readouts were normalized to the DMSO control readouts, expressed as a percent of the control. Outliers were flagged out by visual inspection. Percent of control was plotted against the corresponding compound 1 concentration and the absolute IC50 value was determined using four-parameter logistic non-linear regression as the concentration where inhibition was 50% of the control. For maximum inhibition <50%, the absolute IC50 was reported as >10. In addition to EC50 and IC50, AUC was determined and was normalized to the area corresponding to theoretical no-inhibition (the rectangular area defined by the compound dose range and 0 to 100 in y). Emax was recorded as the minimum in y with the compound dose range. For those cell lines where Emax>40, EC50 was manually set to 10 μM. A hierarchical clustering algorithm based on Euclidean distance between the standardized input values and “Ward.D” method as implemented in R hclust function was used to visualize the compound 1 cellular potency data. The sensitive/moderate/resistant calls for each cell line was determined by visually inspecting the resulting clustering dendrogram. All the analyses were done in R Core Team.

[1] = Homo sapiens, TE-5, TE5 cell line
[2] = Homo sapiens, TE-6, TE6 cell line
[3] = Homo sapiens, TE-9, TE9 cell line
[4] = Homo sapiens, TE-10, TE10 cell line
[5] = Homo sapiens, TE-11, TE11 cell line
[6] = Homo sapiens, TF-1, TF1 cell line
[7] = Homo sapiens, THP-1, THP1 cell line
[8] = Homo sapiens, TOV112D, TOV112D cell line
[9] = Homo sapiens, TT, T.T cell line
[10] = Homo sapiens, U2OS, U2OS cell line
[11] = Homo sapiens, U-87 MG, U87MG cell line
[12] = Homo sapiens, U-937, U937 cell line
[13] = Homo sapiens, UMUC3, UMUC3 cell line
[14] = Homo sapiens, WM 266-4, WM2664 cell line
[15] = Homo sapiens, WM-115, WM115 cell line
[16] = Homo sapiens, WSUDLCL2, WSUDLCL2 cell line

## CC(C)c1ccc(N(C)c2ccc3c(c2)OCC[C@H]3CNc2cnccc2C(=O)O)cc1 [Compound 1, 3-({[(4R)-7-{methyl[4-(propan-2-yl)phenyl]amino}-3,4-dihydro-2H-1-benzopyran-4-yl]methyl}amino)pyridine-4-carboxylic acid]
Homo sapiens, TALL-1, TALL1 cell line
  IC50: 1.8 nM
[1]
  EC50: 6.64 nM
  IC50: 8.47 nM
[2]
  EC50: 4.83 nM
  IC50: 6.68 nM
[3]
  EC50: 3.75 nM
  IC50: 6.89 nM
[4]
  EC50: 9.3 nM
  IC50: 16.3 nM
[5]
  EC50: 3.85 nM
  IC50: 4.28 nM
Homo sapiens, TE-15, 168 h, TE15, oesophagus, squamous cell carcinoma, 168 hours
  IC50: > 10000 nM
[6]
  EC50: 1.58 nM
  IC50: 2.59 nM
[7]
  EC50: 4.92 nM
  IC50: 6.15 nM
[8]
  EC50: 4.26 nM
  IC50: 6.23 nM
[9]
  EC50: 4.37 nM
  IC50: 6.75 nM
[10]
  EC50: 7.71 nM
  IC50: 9.01 nM
[11]
  EC50: ≥ 10000 nM
  IC50: 14.7 nM
[12]
  EC50: 2.73 nM
  IC50: 2.55 nM
Homo sapiens, UACC-812, 168 h, UACC812, breast, ductal carcinoma, 168 hours
  IC50: > 10000 nM
[13]
  EC50: 21.9 nM
  IC50: 39.5 nM
Homo sapiens, VCaP, 168 h, prostate, adenocarcinoma
  IC50: > 10000 nM
[14]
  EC50: ≥ 10000 nM
  IC50: 27.5 nM
[15]
  EC50: 2.5 nM
  IC50: 478 nM
[16]
  EC50: 4.21 nM
  IC50: 5.67 nM
J82 cell line
  AUC: 0.6749
JEKO1 cell line
  AUC: 0.1172
JIMT1 cell line
  AUC: 0.5519
JURKAT cell line
  AUC: 0.1171
  Emax: 0.212
K562 cell line
  AUC: 0.275
KALS1 cell line
  AUC: 0.6559
KARPAS422 cell line
  AUC: 0.329
  Emax: 8.084
KASUMI1, haematopoietic and lymphoid tissue, acute myeloid leukaemia, 168 hours
  AUC: 0.8823
KATOIII cell line
  AUC: 0.49
KG1, haematopoietic and lymphoid tissue, acute myeloid leukaemia, 168 hours
  AUC: 0.9592
KM12 cell line
  AUC: 0.3482
  Emax: 12.24
KMS11 cell line
  AUC: 0.3918
  Emax: 9.983
KNS62 cell line
  AUC: 0.4761
  Emax: 18.84
KNS81 cell line
  AUC: 0.6309
  IC50: > 10000 nM
KU1919 cell line
  AUC: 0.3956
  Emax: 14.57
KURAMOCHI, ovary, undifferentiated carcinoma, 168 hours
  AUC: 0.8742
KYSE30 cell line
  AUC: 0.4434
  Emax: 38.59
KYSE70, oesophagus, squamous cell carcinoma, 168 hours
  AUC: 0.6942
KYSE150 cell line
  AUC: 0.3052
KYSE270 cell line
  AUC: 0.3062
KYSE410 cell line
  AUC: 0.4156
  Emax: 21.4639
KYSE510 cell line
  AUC: 0.1998
LNCAP cell line
  AUC: 0.3974
LOUCY cell line
  AUC: 0.188
  EC50: 2.47 nM
  IC50: 2.47 nM
LOVO cell line
  AUC: 0.6362
LS411N cell line
  AUC: 0.3851
  Emax: 6.415
LU65 cell line
  AUC: 0.4091
  Emax: 12
LU99, lung, large cell carcinoma, 168 hours
  AUC: 0.79
LUDLU1 cell line
  AUC: 0.5307
LUDLU-1, LUDLU1 cell line
  EC50: 12.6 nM
  IC50: 25.8 nM
MALME3M, skin, NS, 168 hours
  AUC: 0.9867
MC116 cell line
  AUC: 0.2527
MCF7 cell line
  AUC: 0.6592
MDAMB157, breast, ductal carcinoma, 168 hours
  AUC: 0.8362
MDAMB175VII, breast, ductal carcinoma, 168 hours
  AUC: 0.7385
MDAMB231, breast, NS, 168 hours
  AUC: 0.7262
MDAMB361, breast, NS, 168 hours
  AUC: 1.117
MDAMB415, breast, NS, 168 hours
  AUC: 0.9413
MDAMB436, breast, NS, 168 hours
  AUC: 0.8438
MDAMB453 cell line
  AUC: 0.4524
  Emax: 21.95
MDAMB468, breast, NS, 168 hours
  AUC: 0.6972
MESSA cell line
  AUC: 0.4933
  Emax: 24.22
MEWO, skin, NS, 168 hours
  AUC: 0.7237
MIAPACA2 cell line
  AUC: 0.3322
  Emax: 9.711
MKN1 cell line
  AUC: 0.3945
MKN45 cell line
  AUC: 0.4427
  Emax: 19.77
MOLT4 cell line
  AUC: 0.1376
  Emax: 0.6048
MPP89 cell line
  AUC: 0.6384
  IC50: > 10000 nM
MV411 cell line
  AUC: 0.2163
NAMALWA cell line
  AUC: 0.2431
  EC50: 3.27 nM
  IC50: 3.21 nM
NCI-H1435, 168 h, NCIH1435, lung, non-small cell carcinoma, 168 hours
  IC50: > 10000 nM
NCI-H2023, NCIH2023 cell line
  EC50: 2.84 nM
  IC50: 3.03 nM
NCI-H2172, NCIH2172 cell line
  EC50: ≥ 10000 nM
  IC50: 133 nM
